Legend:
Con A-induced hepatitis = experiment: Concanavalin A (Con A) hepatitis model of immune-mediated liver injury; type: in vivo, mouse; conditions: for Con A-induced liver damage (plasma ALT levels): 1, 10, 20 mg/kg ip 1 hour before Con A
Method: To determine whether mirtazapine treatment alters subsequent immune-mediated liver injury, we used the mouse model of concanavalin (Con A) hepatitis. The Con A model is a widely used and well characterized model of immune-mediated T cell-driven liver injury^16, 17. Mice were treated with mirtazapine 20 mg/kg ip and 1 hour later Con A (Sigma, St. Louis, Mo.) or PBS vehicle was injected intravenously at a dose of 13.5 mg/kg^17. Mice were sacrificed 16 hours following Con A administration and hepatitis determined biochemically (ALT) and histologically (H & E staining)^17, 18. In addition, to further characterize the effects of mirtazapine in the Con A model, we performed a mirtazapine dose response study with mirtazapine doses of 1, 10, and 20 mg/kg ip given 1 hour prior to Con A treatment.
To assess liver injury, plasma alanine aminotransferase (ALT) activity was measured (Roche-Hitachi Modular-P800 apparatus; Roche, Mannheim, Germany). Additionally, formalin-fixed liver tissue slices were stained with Hematoxylin and Eosin (H&E) for microscopic examination. Extent of liver parenchymal necrosis was quantitated as previously described, using an Olympus XC10 camera (acquired using the Olympus VS-ASW software package; original magnification ×400). Images were later processed and selected images obtained at 25 or 50% magnification (corresponding to magnifications of 100x and 200X, respectively).
Hepatic CXCL10/IP-10, CXCL9/MIG, ICAM-1 and VCAM-1 expression were determined using immunohistochemistry, as previously described. Briefly, following initial deparaffinization and rehydration of tissue sections, antigen retrieval was performed in lx Citrate buffer, PH 6.0 (Abcam) for IP-10/CXCL9 and MIG/CXCL9, or in 1X EDTA buffer pH 8.0 for ICAM1 and VCAM-1. In all cases slides were incubated in antigen retrieval buffer at 95-100° C. for 20 minutes. Endogenous peroxidase and endogenous biotin were blocked using 3% H2O2 and an avidin/biotin blocking kit (Vector Laboratories, Burlingame, Calif.) respectively, and then incubated with primary antibodies (Rabbit IgG polyclonal against MIG at 1:200; polyclonal goat IgG against IP-10/CXCL10 at 1:40; rat monoclonal against ICAM-1 clone YN1/1.7.4 at 1:200; and rabbit monoclonal against VCAM1 clone EPR5047 at 1:1000) overnight at 4° C. This was followed by incubation with biotinylated rabbit anti-goat, goat-anti rat or goat anti-rabbit secondary antibodies (at 1:150) for 1 hour at room temperature (Vector Labs). Negative staining controls were performed by omission of primary antibody, or by omission of both primary and secondary antibodies. […] This was followed by incubation with Vectastain Elite ABC kit (Vector Laboratories) for 30 min at room temperature. Color was developed with Nova Red Chromogen (ImmPACT NovaRED Peroxidase Substrate, Vector Lab, Burlingame, Calif.), after which sections were counterstained with hematoxylin (EMD Millipore). Mounted slides were converted to virtual slides with a BX61 VS virtual microscopy system equipped with an XC10 camera and VS ASW software (Olympus) (original magnification ×400). For ICAM-1, VCAM1, CXCL9/Mig, and CXCL10/IP10 expression, all scanned virtual slides of the sections were examined in a blinded fashion, and expression patterns evaluated and described.
To delineate the effect of mirtazapine treatment on hepatic cytokine/chemokine expression a Luminex® assay was used using methods as previously described. Livers were collected 5 hours after mirtazapine or vehicle treatment. A panel of mouse cytokines/chemokines were simultaneously measured in liver homogenate samples using a mouse MILLIPLEX kit (Millipore, USA) according to the manufacturer's protocol. The multiplexing analysis was performed using the Luminex 100 system (Luminex®, USA; Eve Technologies Corporation, Calgary, Canada). Total protein concentrations in liver homogenates were quantified using a BCA Protein Assay kit (Pierce, USA) according to manufacturers instructions. […]

[1] = tested on: peripheral blood and splenic B cells; experiment: Peripheral blood and splenic B cells by flow cytometry (Example 6); type: in vivo, mouse; conditions: 20 mg/kg ip, 5 hrs post-treatment
Method: Male C57BL/6 mice (age 8-10 wks) were treated with mirt (20 mg/kg ip) or vehicle and livers removed 3-5 hrs later for B cell isolation and characterization by flow cytometry (FACS). Similarly peripheral blood and splenic B cells numbers were determined by FACS. Liver cytokine and chemokine levels were measured by Luminex®.

[2] = tested on: antigen-induced arthritis (mBSA); experiment: Antigen-induced arthritis (AIA) mouse model; type: in vivo; conditions: 20 mg/kg, 24 hrs post-antigen challenge
Description: The antigen-induced arthritis (AIA) mouse model is a well-characterized model that is extensively used to provide insights into the pathogenesis of RA. AIA is critically dependent on an early innate immune response (within 24 hrs post-induction) mediated by synovial TM's and neutrophils which drive subsequent adaptive immune responses and chronic joint inflammation. Proinflammatory cytokines (eg. TNFα, IL-17A and IL-1) and chemokines (eg. CXCL1, CXCL2) recruit neutrophils to the joint in this model. AIA is induced by the intradermal (tail base) injection of 500 μg methylated BSA (mBSA; Sigma) in 50 μl saline+complete Freund's adjuvant (CFA; Sigma) on day 0. 14 days later mice receive an antigen challenge with mBSA (10 μg/10 μl saline) injection into the left knee joint. At various time points after antigen challenge knee swelling is assessed using calipers, and the knee cavity exposed and inflammatory response and tissue injury assessed by immune cell analyses (cell phenotyping by FACS, using our published protocols), cytokine/chemokine expression (by Luminex® and qRT-PCR), and scoring of histological joint damage. Assessment of joint innate immune responses will occur at 24 and 48 hrs post-antigen challenge42. […] Hypernociception was measured before and 24 hrs post-antigen challenge using an automatic dynamic plantar algesiometer (Hugo Basile Inc).

Q: For CN1CCN2c3ncccc3Cc3ccccc3C2C1 (centres unmarked) [Mirtazapine], which “Histological liver damage (liver cell necrosis, H&E)” value (Con A-induced hepatitis; 20 mg/kg, 16 hrs post-Con A) is on record?
A: The value was “only a minimal hepatocyte damage”.

Q: What about the “Con A-induced liver damage (plasma ALT levels)” value (Con A-induced hepatitis; 16 hrs post-Con A) of the same compound?
A: Its value is “markedly attenuated”.

Q: What about the “Con A-induced liver damage (plasma ALT levels)” value (Con A-induced hepatitis; 16 hrs post-Con A, listed as mirtazapine) of the same compound?
A: The value was “striking reduction in liver damage”.

Q: What about the “Hepatic CXCL10 levels” value (Con A-induced hepatitis; Con A treated mice, 20 mg/kg) of the same compound?
A: The value was “significantly augmented”.

Q: What about the “Hepatic IL-10 levels” value (Con A-induced hepatitis; Con A treated mice, 20 mg/kg) of the same compound?
A: The value was “significantly higher”.

Q: And the “Hepatic TNFα and IFNγ levels” value (Con A-induced hepatitis; Con A treated mice, 20 mg/kg)?
A: Its value is “significantly reduced”.

Q: What about the “Hepatic levels of IL-6, IL-9 and LIF” value (Con A-induced hepatitis; Con A treated mice, 20 mg/kg) of the same compound?
A: Its value is “significantly reduced”.

Q: What about the “Hepatic levels of the chemokines CXCL9, CXCL2, CXCL1, CCL11 and CCL2” value (Con A-induced hepatitis; Con A treated mice, 20 mg/kg) of the same compound?
A: Its value is “reduced”.

Q: And the “Con A-induced increases in ICAM-1 expression in hepatic central veins and sinusoidal endothelium” value (Con A-induced hepatitis; IHC, 20 mg/kg)?
A: The value was “almost completely prevented”.

Q: And the “Con A-induced increases in hepatic VCAM-1 expression” value (Con A-induced hepatitis; IHC, 20 mg/kg)?
A: Its value is “minimal effect”.

Q: What about the “Peripheral blood B cells (as % of total CD45+ leukocytes)” value [1] of the same compound?
A: Its value is “highly significant drop”.

Q: And the “Splenic B cell numbers” value [1]?
A: Its value is “paralleled by similar changes”.

Q: What about the AIA-induced hypernociception [2] of the same compound?
A: Its AIA-induced hypernociception is “attenuates”.

Q: And the “Joint total neutrophil recruitment” value [2]?
A: Its value is “reduces”.

Q: And the “Synovial fluid CXCL1 levels” value [2]?
A: Its value is “but not CXCL1”.

Q: What about the “Synovial fluid IL-1α levels” value [2] of the same compound?
A: Its value is “reduces”.

Q: What about the “Synovial fluid TNFα levels” value [2] of the same compound?
A: Its value is “reduces”.
